# Results from patent US10077264B2, “Derivatives and methods of treating hepatitis B infections” (Novira Therapeutics, Inc., priority 2014, dated 2018).
# Test system: HBV replication in HepG2.2.15 cells
# Assay: HBV replication inhibition assay (BDNA assay)
# Type: cell-based
# Conditions: HepG2.2.15 cells, 6 days, encapsidated HBV DNA in supernatant; read-out: Activity in BDNA-assay (EC50)
# Description: HBV replication inhibition by the compounds of this invention could be determined in cells infected or transfected with HBV, or cells with stably integrated HBV, such as HepG2.2.15 cells (Sells et al. 1987). In this example, HepG2.2.15 cells were maintained in cell culture medium containing 10% fetal bovine serum (FBS), Geneticin, L-glutamine, penicillin and streptomycin. HepG2.2.15 cells could be seeded in 96-well plates at a density of 40,000 cells/well and be treated with serially diluted compounds at a final DMSO concentration of 0.5% either alone or in combination by adding drugs in a checker box format. Cells were incubated with compounds for three days, after which medium was removed and fresh medium containing compounds was added to cells and incubated for another three days. At day 6, supernatant was removed and treated with DNase at 37° C. for 60 minutes, followed by enzyme inactivation at 75° C. for 15 minutes. Encapsidated HBV DNA was released from the virions and covalently linked HBV polymerase by incubating in lysis buffer (Affymetrix QS0010) containing […] proteinase K at 50° C. for 40 minutes. HBV DNA was denatured by addition of 0.2 M NaOH and detected using a branched DNA (BDNA) QuantiGene assay kit according to manufacturer recommendation (Affymetrix). HBV DNA levels could also be quantified using qPCR, based on amplification of encapsidated HBV DNA extraction with QuickExtraction Solution (Epicentre Biotechnologies) and amplification of HBV DNA using HBV specific PCR probes that can hybridize to HBV DNA and a fluorescently labeled probe for quantitation. In addition, cell viability of HepG2.2.15 cells incubated with test compounds alone or in combination was determined by using CellTitre-Glo reagent according to the manufacturer protocol (Promega). The mean background signal from wells containing only culture medium was subtracted from all other samples, and percent inhibition at each compound concentration was calculated by normalizing to signals from HepG2.2.15 cells treated with 0.5% DMSO using equation E1. % inhibition=(DMSOave−Xi)/DMSOave×100% E1: • where DMSOave is the mean signal calculated from the wells that were treated with DMSO control (0% inhibition control) and Xi is the signal measured from the individual wells. EC50 values, effective concentrations that achieved 50% inhibitory effect, were determined by non-linear fitting using Graphpad Prism software (San Diego, Calif.) and equation E2 Y=Ymin+(Ymax−Ymin)/(1+10(Log EC50−X)×HillSlope) E2: • where Y represents percent inhibition values and X represents the logarithm of compound concentrations.
# Selected compounds of the invention were assayed in the HBV replication assay (BDNA assay), as described above and a representative group of these active compounds is shown in Table 3.
row,Compound,EC50
1,CC1Cc2[nH]nc(-c3cscn3)c2CN1C(=O)Nc1ccc(F)c(Br)c1 (stereo not drawn) [919 E2],10 to 100 nM
2,Cc1cccc(NC(=O)N2Cc3c(-c4cscn4)n[nH]c3CC2C)c1 (stereo not drawn) [923 E2],10 to 100 nM
3,CC1Cc2[nH]nc(-c3cscn3)c2CN1C(=O)Nc1cccc(Br)c1F (stereo not drawn) [920 E2],10 to 100 nM
4,"CC1c2c(-c3ccccc3)n[nH]c2CCN1C(=O)Nc1cccc(Cl)c1 (single isomer, unassigned) [318 (E2), N-(3-chlorophenyl)-4-methyl-3-phenyl-1,4,6,7-tetrahydropyrazolo[4,3-c]pyridine-5-carboxamide]",100 to 500 nM
5,CC1Cc2[nH]nc(-c3cscn3)c2CN1C(=O)Nc1ccc(F)c(Cl)c1 (stereo not drawn) [917 E2],10 to 100 nM
6,CC1Cc2[nH]nc(-c3cscn3)c2CN1C(=O)Nc1ccnc(Br)c1F (stereo not drawn) [921 E2],10 to 100 nM
7,Cc1cc(NC(=O)N2Cc3c(-c4cscn4)n[nH]c3CC2C)ccc1F (stereo not drawn) [924 E2],10 to 100 nM

# Same assay, conditions: Hepatitis B virus, 144 h; HepG2.2.15 cells, 10 μM, 6 days, encapsidated HBV DNA in supernatant; read-out: Activity in BDNA-assay (activity at 10 μM)
row,Compound,inhibition at 10 µM
1,"O=C(C1C[C@H]1c1ccccc1)N1CCc2[nH]nc(-c3ccccc3)c2C1 (stereo in doubt) [Compound 030, (2-phenylcyclopropyl)-(3-phenyl-2,4,6,7-tetrahydropyrazolo[4,3-c]pyridin-5-yl)methanone]",> 50%
2,O=C(COc1ccccc1C(F)(F)F)N1CCc2[nH]nc(-c3ccccc3)c2C1 [Compound 163],> 50%
3,O=C(Nc1cnc(Cl)c(Cl)c1)N1CCc2[nH]nc(-c3ccccc3)c2C1 [Compound 226],> 50%
4,Cc1ccc(OCC(=O)N2CCc3[nH]nc(-c4ccccc4)c3C2)cc1 [Compound 147],> 50%
5,"O=C(/C=C/c1ccccc1)N1CCc2[nH]nc(-c3ccccc3)c2C1 [Compound 057, (E)-3-phenyl-1-(3-phenyl-1,4,6,7-tetrahydropyrazolo[4,3-c]pyridin-5-yl)prop-2-en-1-one]",> 50%
6,O=C(C1COc2ccccc2O1)N1CCc2[nH]nc(-c3ccccc3)c2C1 (stereo not drawn) [Compound 171],> 50%
7,Cc1cccc(OCC(=O)N2CCc3[nH]nc(-c4ccccc4)c3C2)c1 [Compound 145],> 50%
8,"O=C(CCc1ccccc1)N1CCc2[nH]nc(-c3ccccc3)c2C1 [Compound 027, 3-phenyl-1-(3-phenyl-1,4,6,7-tetrahydropyrazolo[4,3-c]pyridin-5-yl)propan-1-one]",> 50%
9,O=C(Nc1cc(Cl)ccc1F)N1CCc2[nH]nc(-c3ccccc3)c2C1 [Compound 214],> 50%
10,"O=C(NCc1ccccc1)N1CCc2[nH]nc(-c3ccccc3)c2C1 [Compound 017, N-benzyl-3-phenyl-1,4,6,7-tetrahydropyrazolo[4,3-c]pyridine-5-carboxamide]",> 50%
11,O=C(COc1cncnc1)N1CCc2[nH]nc(-c3ccccc3)c2C1 [Compound 001],> 50%
12,O=C(COc1cccc(F)c1)N1CCc2[nH]nc(-c3ccccc3)c2C1 [Compound 143],> 50%
13,O=C(Nc1ccc(Cl)cc1)N1CCc2[nH]nc(-c3ccccc3)c2C1 [Compound 113],> 50%
14,O=C(COc1ccc(F)cc1)N1CCc2[nH]nc(-c3ccccc3)c2C1 [Compound 144],> 50%
15,O=C(COc1ccc(C(F)(F)F)cc1)N1CCc2[nH]nc(-c3ccccc3)c2C1 [Compound 165],> 50%
16,"Cc1ccc(-c2n[nH]c3c2CN(C(=O)Nc2cccc(Cl)c2)CC3)cc1 [Compound 281, N-(3-chlorophenyl)-3-(p-tolyl)-1,4,6,7-tetrahydropyrazolo[4,3-c]pyridine-5-carboxamide]",> 50%
17,O=C(COc1cccc(Cl)c1)N1CCc2[nH]nc(-c3ccccc3)c2C1 [Compound 149],> 50%
18,"O=C(Nc1cccc(Cl)c1)N1CCc2[nH]nc(-c3cccc(F)c3)c2C1 [Compound 277, N-(3-chlorophenyl)-3-(3-fluorophenyl)-1,4,6,7-tetrahydropyrazolo[4,3-c]pyridine-5-carboxamide]",> 50%

# Same assay, conditions: Hepatitis B virus, HepG2.2.15, 144 h, HepG2.2.15 cells, 6 days, encapsidated HBV DNA in supernatant; read-out: Activity in BDNA-assay (EC50)
row,Compound,EC50
1,"O=C(Nc1cccc(Cl)c1)N1CCc2[nH]nc(-c3ccsc3)c2C1 [Compound 562, N-(3-chlorophenyl)-3-(3-thienyl)-1,4,6,7-tetrahydropyrazolo[4,3-c]pyridine-5-carboxamide]",10 to 100 nM
2,CC1Cc2[nH]nc(-c3cscn3)c2CN1C(=O)Nc1ccc(F)c(C#N)c1 (stereo not drawn) [922 E1],10 to 100 nM
3,O=C(Nc1cc(Cl)ccc1Cl)N1CCc2[nH]nc(-c3ccccc3)c2C1 [Compound 191],500 to 1000 nM
4,"Cc1ccccc1-c1n[nH]c2c1CN(C(=O)Nc1cccc(Cl)c1)CC2 [Compound 279, N-(3-chlorophenyl)-3-(o-tolyl)-1,4,6,7-tetrahydropyrazolo[4,3-c]pyridine-5-carboxamide]",100 to 500 nM
5,Cc1cccc(NC(=O)N2Cc3c(-c4cscn4)n[nH]c3CC2C)c1 (stereo not drawn) [923 E1],10 to 100 nM
6,CC1Cc2[nH]nc(-c3cscn3)c2CN1C(=O)Nc1cccc(Br)c1 (stereo not drawn) [918 E1],10 to 100 nM
7,"O=C(Nc1cccc(Cl)c1)N1CCc2ncn(-c3ccccc3)c2C1 [Compound 542, N-(3-chlorophenyl)-3-phenyl-6,7-dihydro-4H-imidazo[4,5-c]pyridine-5-carboxamide]",500 to 1000 nM
8,"Cc1cccc(-c2n[nH]c3c2CN(C(=O)Nc2cccc(Cl)c2)CC3)c1 [Compound 280, N-(3-chlorophenyl)-3-(m-tolyl)-1,4,6,7-tetrahydropyrazolo[4,3-c]pyridine-5-carboxamide]",100 to 500 nM
9,"O=C(Nc1cccc(Cl)c1)N1CCc2[nH]nc(-c3cccnc3)c2C1 [Compound 286, N-(3-chlorophenyl)-3-(3-pyridyl)-1,4,6,7-tetrahydropyrazolo[4,3-c]pyridine-5-carboxamide]",500 to 1000 nM
10,"O=C(Nc1cccc(Cl)c1)N1CCc2c(ncn2-c2ccccc2)C1 [Compound 583, N-(3-chlorophenyl)-1-phenyl-6,7-dihydro-4H-imidazo[4,5-c]pyridine-5-carboxamide]",1500 to 5000 nM
11,"COc1cccc(-c2n[nH]c3c2CN(C(=O)Nc2cccc(Cl)c2)CC3)c1 [Compound 326, N-(3-chlorophenyl)-3-(3-methoxyphenyl)-1,4,6,7-tetrahydropyrazolo[4,3-c]pyridine-5-carboxamide]",100 to 500 nM
12,"COc1ccccc1-c1n[nH]c2c1CN(C(=O)Nc1cccc(Cl)c1)CC2 [Compound 327, N-(3-chlorophenyl)-3-(2-methoxyphenyl)-1,4,6,7-tetrahydropyrazolo[4,3-c]pyridine-5-carboxamide]",100 to 500 nM
13,CC1CCCC(NC(=O)N2CCc3[nH]nc(-c4ccccc4)c3C2)C1 (stereo not drawn) [Compound 436],500 to 1000 nM
14,O=C(Nc1ccc(F)c(Cl)c1)N1CCc2[nH]nc(-c3ccccc3)c2C1 [Compound 114],10 to 100 nM
15,O=C(Nc1cccc(Cl)c1)N1CCc2[nH]nc(-c3cccnn3)c2C1 [Compound 290],10 to 100 nM
16,Cn1ccc(-c2n[nH]c3c2CN(C(=O)Nc2cccc(Cl)c2)CC3)n1 [Compound 555],100 to 500 nM
17,Cc1cc(NC(=O)N2Cc3c(-c4cscn4)n[nH]c3CC2C)ccc1F (stereo not drawn) [924 E1],10 to 100 nM
18,O=C(Nc1cccc(Cl)c1)N1CCc2[nH]nc(-c3ccccc3)c2C1 [Compound 112],10 to 100 nM
19,N#Cc1cc(NC(=O)N2CCc3[nH]nc(-c4ccccc4)c3C2)ccc1F [Compound 560],10 to 100 nM
20,CC1Cc2[nH]nc(-c3cscn3)c2CN1C(=O)Nc1ccc(F)c(Br)c1 (stereo not drawn) [919 E1],10 to 100 nM

# Same assay, conditions: Hepatitis B virus, HepG2.2.15, 144 h, read-out: Activity in BDNA-assay (EC50)
row,Compound,EC50
1,"O=C(Nc1ccccc1)N1CCc2[nH]nc(-c3ccccc3)c2C1 [Compound 022, N,3-diphenyl-1,4,6,7-tetrahydropyrazolo[4,3-c]pyridine-5-carboxamide]",100 to 500 nM

# Same assay, conditions: Hepatitis B virus, HepG2.2.15, 144 h, read-out: Activity in BDNA-assay (activity at 10 μM)
row,Compound,inhibition at 10 µM
1,"COc1ccc(-c2n[nH]c3c2CN(C(=O)Nc2cccc(Cl)c2)CC3)cc1 [Compound 325, N-(3-chlorophenyl)-3-(4-methoxyphenyl)-1,4,6,7-tetrahydropyrazolo[4,3-c]pyridine-5-carboxamide]",> 50%
2,"O=C(Oc1ccccc1)N1CCc2[nH]nc(-c3ccccc3)c2C1 [Compound 021, phenyl3-phenyl-1,4,6,7-tetrahydropyrazolo[4,3-c]pyridine-5-carboxylate]",> 50%
